Patent US4093714A, “9β-D-Arabinofuranosylpurine nucleotides and method of use” (ICN Pharmaceuticals, Inc., priority 1974, dated 1978)
Where two headings read alike, the source gives them in different places.

How the values were obtained:
[1] = test system: Type 2 Herpes Simplex Virus; type: cell-based; settings: cell culture, three days, VR >0.5 definite, <0.5 slight antiviral activity
[2] = test system: Type 1 Herpes Simplex Virus; type: cell-based; settings: cell culture, three days, VR >0.5 definite, <0.5 slight antiviral activity
[3] = test system: Vaccinia Virus; type: cell-based; settings: cell culture, three days, VR >0.5 definite, <0.5 slight antiviral activity
[4] = clinical testing as antiviral agent; cited from earlier work
[5] = test system: spectrum of virus infections; settings: cited from earlier work
[6] = cited from earlier work
[7] = test system: Herpes simplex, strain 123; test: Anti-herpes encephalitis activity in mice, intraperitoneal treatment; settings: for Percent Survivor Number Increase: twice daily for 8 days from 4 hr post virus, 21 days; for Survivor Increase P: probability value (chi square analysis)
[8] = test system: equine abortion virus; settings: for Infected, Treated Surv/Total: 21 days observation; for Toxicity Control Surv/Total: twice daily for four days; for Survival Increase p: Fisher's exact test; for Infected, Treated Mean Survival Time: animals dying on or before day 21; for Mean Surv. Increase p: t test
[9] = eventually to uric acid; cited from earlier work

Compound: O=c1c2ncn([C@@H]3O[C@H](COP(=O)(O)O)[C@@H](O)[C@@H]3O)c2ncn1O [9-β-D-Arabinofuranosyl-N^1-hydroxyhypoxanthine-5'-phosphate]
- virus rating (VR) [1]: 0.0-0.6
- virus rating (VR) [2]: 0.2-0.7
- virus rating (VR) [3]: 0.1-0.4

Compound: Nc1ncnc2c1ncn2[C@@H]1O[C@H](CO)[C@@H](O)[C@@H]1O [9-β-D-Arabinofuranosyladenine, 9-β-D-arabinofuranosyladenine]
- human toxic symptoms [4]: mild nausea, transient leukopenia and central nervous system involvement which causes illusions and hallucinations
- reported antiviral effectiveness [5]: effective agent against a spectrum of virus infections
- solubility (in words) [6]: low solubility
- Percent Survivor Number Increase ([7]; 62.5 mg/kg/day i.p.): 0%
- Survivor Increase P ([7]; 62.5 mg/kg/day i.p.): > 0.03
- Percent Survivor Number Increase ([7]; 125 mg/kg/day i.p.): 30%
- Survivor Increase P ([7]; 125 mg/kg/day i.p.): < 0.05
- Percent Survivor Number Increase ([7]; 250 mg/kg/day i.p.): 40%
- Survivors/Total (Toxicity Controls) ([7]; 250 mg/kg/day i.p., twice daily for 8 days, 21 days observation): 5/5
- Survivor Increase P ([7]; 250 mg/kg/day i.p.): < 0.05
- effectiveness of ara-A compared with ara-IMP ([7]; i.p., Table II): less effective
- Infected, Treated Surv/Total ([8]; Expt. 1, 125 mg/kg/day i.p.): 8/9
- Toxicity Control Surv/Total ([8]; Expt. 1, 125 mg/kg/day i.p.): 2/2
- Survival Increase p ([8]; Expt. 1, 125 mg/kg/day i.p.): < 0.001
- Infected, Treated Mean Survival Time ([8]; Expt. 1, 125 mg/kg/day i.p.): 13 days
- Infected, Treated Surv/Total ([8]; Expt. 1, 250 mg/kg/day i.p.): 0.8
- Toxicity Control Surv/Total ([8]; Expt. 1, 250 mg/kg/day i.p.): 2/3
- Infected, Treated Mean Survival Time ([8]; Expt. 1, 250 mg/kg/day i.p.): 9.2 days
- Mean Surv. Increase p ([8]; Expt. 1, 250 mg/kg/day i.p.): < 0.001
- Infected, Treated Surv/Total ([8]; Expt. 2, 62.5 mg/kg/day i.p.): 10/10
- Survival Increase p ([8]; Expt. 2, 62.5 mg/kg/day i.p.): < 0.001
- Infected, Treated Mean Survival Time ([8]; Expt. 2, 62.5 mg/kg/day i.p.): > 21 days
- Mean Surv. Increase p ([8]; Expt. 2, 62.5 mg/kg/day i.p.): < 0.001
- Infected, Treated Surv/Total ([8]; Expt. 2, 250 mg/kg/day i.p.): 3/10
- Toxicity Control Surv/Total ([8]; Expt. 2, 250 mg/kg/day i.p.): 2/3
- Survival Increase p ([8]; Expt. 2, 250 mg/kg/day i.p.): 0.09
- Infected, Treated Mean Survival Time ([8]; Expt. 2, 250 mg/kg/day i.p.): 12 days
- Mean Surv. Increase p ([8]; Expt. 2, 250 mg/kg/day i.p.): < 0.001

Compound: O=c1[nH]cnc2c1ncn2[C@@H]1O[C@@H]2COP(=O)(O)O[C@H]2[C@@H]1O [9-β-D-Arabinofuranosylhypoxanthine-3' ,5'-cyclic phosphate]
- virus rating (VR) [2]: 0.7-1.1
- virus rating (VR) [3]: 0.7

Compound: O=c1[nH]cnc2c1ncn2[C@@H]1O[C@H](CO)[C@@H](OP(=O)(O)O)[C@@H]1O [9-β-D-Arabinofuranosylhypoxanthine-3'-phosphate]
- virus rating (VR) [2]: 1.0

Compound: COP(=O)(O)OC[C@H]1O[C@@H](n2cnc3c(=O)[nH]cnc32)[C@@H](O)[C@@H]1O [9-β-D-Arabinofuranosylhypoxanthine-5'-O-methylphosphate]
- virus rating (VR) [1]: 0.0
- virus rating (VR) [2]: 0.4-0.7
- virus rating (VR) [3]: 0.4

Compound: Nc1ncnc2c1ncn2[C@@H]1O[C@H](COP(=O)(O)O)[C@@H](O)[C@@H]1O [9-β-D-arabinofuranosyladenine-5'-phosphate]
- metabolic degradation [9]: rapidly degraded in the metabolic system (eventually to uric acid)
- virus rating (VR) [2]: 1.3

Compound: O=c1[nH]c(=O)n([C@H]2C[C@H](O)[C@@H](CO)O2)cc1I [IDU, 5'-iodo-2'-deoxyuridine]
- maximum solubility [6]: about 0.1 weight percent
- solubility (in words) [6]: extremely low solubility
